From the NIST ThermoML archive (doi:10.1016/j.jct.2017.09.006)
Numbers after ± are expanded uncertainties.

Experiments:
[1] = Crystal; DTA
[2] = Molar enthalpy of transition or fusion; conditions: Crystal; DSC

Structure (SMILES) | Normal melting temperature [1] [°C] | Molar enthalpy of transition or fusion [2] [kcal/mol]
Cc1ccc2ccc(C)cc2c1 [2,7-dimethylnaphthalene] | 95.0 ± 0.5 | 6.05 ± 0.263
COC(=O)c1cccc(C(=O)OC)c1 [dimethyl 1,3-benzenedicarboxylate] | 67.2 ± 0.5 | 6.67 ± 0.167
